Key:
in vivo [1] = experiment: in vivo; set-up: species or system Sprague Dawley rats; conditions: male, Sprague Dawley, rat, po, 50 mg/kg
Procedure: Overnight fasted animals were administered with the test compounds in recommended vehicle 0.4% (v/v) Tween 80+2% (v/v) Glycerol and 15% w/v HPBCD by oral route with a dose of 50 mg/kg body weight at dose volume of 10 mL/kg bw. Under mild isoflurane anesthesia, blood samples were collected into pre-labeled tubes containing anticoagulant (K2EDTA—2 mg/mL blood) during the next 24 hours post dose. Collected blood samples were centrifuged at 4000 rpm, 4° C. for 10 minutes and plasma was separated and stored at −80° C. until analysis.

polio virus Sabin 1 = experiment: organism not typed; type: cell-based; conditions: read-out: Polio 1 inhibition capacity (IC50)
Enterovirus 30 = experiment: In vitro CPE assay in mammalian cell culture, EV30; type: cell-based; conditions: viral cytopathic effect in mammalian cell culture, read-out: EV30 inhibition capacity (IC50)
coxsackie B1 virus = experiment: In vitro CPE assay in mammalian cell culture, B1; type: cell-based; conditions: viral cytopathic effect in mammalian cell culture, read-out: B1 inhibition capacity (IC50)
coxsackie B3 virus = experiment: In vitro CPE assay in mammalian cell culture, B3; type: cell-based; conditions: Enterovirus B, viral cytopathic effect in mammalian cell culture, read-out: B3 inhibition capacity (IC50)
Enterovirus 68 = experiment: In vitro CPE assay in mammalian cell culture, EV68; type: cell-based; conditions: Enterovirus D, viral cytopathic effect in mammalian cell culture, read-out: EV68 inhibition capacity (IC50)
coxsackie B2 virus = experiment: In vitro CPE assay in mammalian cell culture, B2; type: cell-based; conditions: viral cytopathic effect in mammalian cell culture, read-out: B2 inhibition capacity (IC50)
PI3Kβ = PI3Kβ (Homo sapiens, UniProt P42338); experiment: PI3 kinase inhibition HTRF assay; type: biochemical; conditions: * no inhibition at the highest tested concentration 1 μM
Procedure: (§1) Phosphatidyl inositol kinase inhibition assay Inhibition of PI4 kinases was studied using the ADP-Glo™ Kinase Assay which is a luminescent kinase assay that measures ADP formed from a kinase reaction, wherein ADP is converted into ATP, which is converted into light by Ultra-Glo™ Luciferase. The assay is performed in two steps; first, after the kinase reaction, an equal volume of ADP-Glo™ Reagent is added to terminate the kinase reaction and deplete the remaining ATP. In the second step, the Kinase Detection Reagent is added, which simultaneously converts ADP to ATP and allows the newly synthesized ATP to be measured using a coupled luciferase/luciferin reaction. The luminescent signal produced is proportional to the activity of the kinase. Inhibition of PI3 kinases was studied using the HTRF (homogeneous time-resolved fluorescence) assay, which is a universal method for identifying and characterizing the phosphotransferase activity induced by any ATP/ADP dependent target. The formation of ADP was detected by a specific monoclonal antibody labeled with Eu^3+ cryptate, and directly correlated with the amount of phosphorylated substrate.

PI3Kα = PI3Kα (Homo sapiens, UniProt P42336); experiment: PI3 kinase inhibition HTRF assay; type: biochemical; conditions: * no inhibition at the highest tested concentration 1 μM
Procedure: as §1

coxsackie B5 virus = experiment: In vitro CPE assay in mammalian cell culture, B5; type: cell-based; conditions: viral cytopathic effect in mammalian cell culture, read-out: B5 inhibition capacity (IC50)
Enterovirus 6 = experiment: In vitro CPE assay in mammalian cell culture, EV6; type: cell-based; conditions: viral cytopathic effect in mammalian cell culture, read-out: EV6 inhibition capacity (IC50)
PI4KIIIβ = PI4KIIIβ (Homo sapiens, UniProt Q9UBF8); experiment: Phosphatidyl inositol kinase inhibition assay (ADP-Glo Kinase Assay); type: biochemical
Procedure: as §1

PI4KIIIα = PI4KIIIα (Homo sapiens, UniProt P42356); experiment: as above; type: biochemical; conditions: * no inhibition at the highest tested concentration 1 μM
Procedure: as §1

coxsackie B4 virus = experiment: In vitro CPE assay in mammalian cell culture, B4; type: cell-based; conditions: Enterovirus B, viral cytopathic effect in mammalian cell culture, read-out: B4 inhibition capacity (IC50)
Enterovirus 71 = experiment: In vitro CPE assay in mammalian cell culture, EV71; type: cell-based; conditions: Enterovirus A, viral cytopathic effect in mammalian cell culture, read-out: EV71 inhibition capacity (IC50)
in vitro = in vitro ADME; conditions: plasma, pH 7.4
Procedure: Plasma protein binding study was performed by using a Rapid Equilibrium Dialysis (RED) device containing dialysis membrane with a molecular weight cut-off of 8,000 Daltons. Each dialysis insert contains two chambers. The red chamber was for the plasma while the white chamber was for the buffer. The human and rat plasma (pH adjusted to 7.40) samples of test items and reference items (Warfarin and Propranolol) were prepared at a required test concentration of 5 μM using 5 mM DMSO stocks (final DMSO concentration was 0.1%). 300 μL of plasma sample was added into the sample chamber. 500 μL of buffer was added into the buffer chamber. After sealing the RED device with an adhesive film, incubation was done at 37° C. with shaking at 300 rpm for 4 h. Following incubation, an aliquot of 50 μL was removed from each well (plasma and buffer side) and diluted with equal volume of opposite matrix to nullify the matrix effect. The specimens were subjected to sample extraction in presence of internal standard by liquid-liquid extraction/protein precipitation method. After extraction, the samples were transferred into labeled auto sampler vials and submitted to LC-MS/MS analysis.

[2] = Metabolic stability in rat liver microsomes; type: in vitro ADME; conditions: 5 μM test item, 0.125 mg/mL microsomal protein
Procedure: (§2) Metabolic stability in human and rat liver microsomesMetabolic stability was studied using human (HLM) or rat (RLM) liver microsomes. The final composition of the assay included 5 μM of test item and reference item (Diclofenac or Imipramine) prepared from DMSO stock, so that the final concentration of DMSO was 0.1%, 0.125 mg/mL microsomal protein and cofactors (5.0 mM G-6-P, 0.06 U/mL G-6-PDH, 2.0 mM MgCl2, 1.0 mM NADP^+). Test and reference items were incubated with human or rat liver microsomes with or without cofactors. The reaction mixture (100 μL) was removed at specified time periods and the reaction was stopped by addition of stop solution. The samples were extracted in presence of internal standard and were analyzed using LC-MS/MS. The percent of the test/reference item remaining after a specified incubation period was calculated with respect to the peak area ratio at time 0 min.

in vivo [3] = experiment: in vivo; set-up: species or system Sprague Dawley rats; conditions: Sprague Dawley, rat, po
Procedure: Based on previous toxicity tests with analogs and pharmacokinetic data, repeated dose toxicity and toxicokinetic studies were conducted to generate information on the toxic characteristics of some representative compounds of the invention, viz. Example 8 and Example 12, respectively, when administered orally by gavage to Sprague Dawley rats for a period of 7 consecutive days. The study plan for the studies was by current ICH guidelines for 7 days toxicity studies and the No Observed Adverse Effect Level (NOAEL) of Example 8 and Example 12 was determined as 60 mg/kg body weight/day and 50 mg/kg bodyweight/day respectively when administered once daily orally to Sprague Dawley rats for 7 consecutive days under the tested dose levels and experimental conditions employed.

[4] = Metabolic stability in human liver microsomes; type: in vitro ADME
Procedure: as §2

Sequence of PI4KIIIβ (Q9UBF8 whole entry): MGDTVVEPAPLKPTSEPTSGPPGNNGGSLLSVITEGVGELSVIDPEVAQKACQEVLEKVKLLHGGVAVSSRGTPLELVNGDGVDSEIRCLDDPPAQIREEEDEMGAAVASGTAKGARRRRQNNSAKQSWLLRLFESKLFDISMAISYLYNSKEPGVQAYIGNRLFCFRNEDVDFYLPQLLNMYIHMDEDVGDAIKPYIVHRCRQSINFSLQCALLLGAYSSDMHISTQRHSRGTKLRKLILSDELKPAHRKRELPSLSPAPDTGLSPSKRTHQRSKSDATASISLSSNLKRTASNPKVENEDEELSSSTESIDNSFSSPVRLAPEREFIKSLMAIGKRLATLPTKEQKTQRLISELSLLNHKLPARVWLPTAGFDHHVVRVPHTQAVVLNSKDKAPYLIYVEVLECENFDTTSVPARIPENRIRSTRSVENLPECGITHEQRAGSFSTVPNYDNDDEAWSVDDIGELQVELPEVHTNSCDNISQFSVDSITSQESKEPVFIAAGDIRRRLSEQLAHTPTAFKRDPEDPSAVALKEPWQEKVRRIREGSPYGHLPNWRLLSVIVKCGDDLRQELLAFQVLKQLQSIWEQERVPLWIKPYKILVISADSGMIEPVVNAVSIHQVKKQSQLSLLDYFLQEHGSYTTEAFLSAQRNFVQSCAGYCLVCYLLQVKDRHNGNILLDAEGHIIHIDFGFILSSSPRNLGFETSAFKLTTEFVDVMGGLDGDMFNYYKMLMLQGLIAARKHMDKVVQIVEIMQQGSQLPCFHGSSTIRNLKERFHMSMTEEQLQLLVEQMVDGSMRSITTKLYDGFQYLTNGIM
Sequence of PI3Kβ (P42338 whole entry, species assumed): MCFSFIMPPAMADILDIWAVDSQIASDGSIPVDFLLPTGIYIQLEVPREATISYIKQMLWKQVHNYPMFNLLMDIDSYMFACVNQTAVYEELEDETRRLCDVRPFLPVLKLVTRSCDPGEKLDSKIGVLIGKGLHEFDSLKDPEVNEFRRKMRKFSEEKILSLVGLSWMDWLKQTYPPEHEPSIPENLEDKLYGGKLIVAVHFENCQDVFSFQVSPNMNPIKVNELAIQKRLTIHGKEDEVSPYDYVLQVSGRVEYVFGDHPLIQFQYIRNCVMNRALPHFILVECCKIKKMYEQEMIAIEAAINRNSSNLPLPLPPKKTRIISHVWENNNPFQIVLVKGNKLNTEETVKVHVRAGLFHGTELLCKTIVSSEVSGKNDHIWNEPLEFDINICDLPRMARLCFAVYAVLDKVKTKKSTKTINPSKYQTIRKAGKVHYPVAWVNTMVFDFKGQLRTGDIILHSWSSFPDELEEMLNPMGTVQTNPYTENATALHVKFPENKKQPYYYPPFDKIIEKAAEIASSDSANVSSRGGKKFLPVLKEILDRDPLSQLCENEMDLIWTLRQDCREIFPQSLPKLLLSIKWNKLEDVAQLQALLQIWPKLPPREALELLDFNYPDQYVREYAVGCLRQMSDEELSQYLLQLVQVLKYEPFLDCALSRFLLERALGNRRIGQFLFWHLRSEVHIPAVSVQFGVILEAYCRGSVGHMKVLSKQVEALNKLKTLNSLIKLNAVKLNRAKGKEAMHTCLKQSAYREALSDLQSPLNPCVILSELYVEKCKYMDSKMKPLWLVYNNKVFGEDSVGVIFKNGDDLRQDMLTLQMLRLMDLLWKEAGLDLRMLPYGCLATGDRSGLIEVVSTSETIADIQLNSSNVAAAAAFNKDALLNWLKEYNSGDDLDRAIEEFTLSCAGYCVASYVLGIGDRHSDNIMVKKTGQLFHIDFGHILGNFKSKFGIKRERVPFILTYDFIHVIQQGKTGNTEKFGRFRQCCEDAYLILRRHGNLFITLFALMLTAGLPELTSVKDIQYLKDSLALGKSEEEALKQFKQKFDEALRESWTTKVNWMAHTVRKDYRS
Sequence of PI3Kβ (P27986 whole entry partner, species assumed): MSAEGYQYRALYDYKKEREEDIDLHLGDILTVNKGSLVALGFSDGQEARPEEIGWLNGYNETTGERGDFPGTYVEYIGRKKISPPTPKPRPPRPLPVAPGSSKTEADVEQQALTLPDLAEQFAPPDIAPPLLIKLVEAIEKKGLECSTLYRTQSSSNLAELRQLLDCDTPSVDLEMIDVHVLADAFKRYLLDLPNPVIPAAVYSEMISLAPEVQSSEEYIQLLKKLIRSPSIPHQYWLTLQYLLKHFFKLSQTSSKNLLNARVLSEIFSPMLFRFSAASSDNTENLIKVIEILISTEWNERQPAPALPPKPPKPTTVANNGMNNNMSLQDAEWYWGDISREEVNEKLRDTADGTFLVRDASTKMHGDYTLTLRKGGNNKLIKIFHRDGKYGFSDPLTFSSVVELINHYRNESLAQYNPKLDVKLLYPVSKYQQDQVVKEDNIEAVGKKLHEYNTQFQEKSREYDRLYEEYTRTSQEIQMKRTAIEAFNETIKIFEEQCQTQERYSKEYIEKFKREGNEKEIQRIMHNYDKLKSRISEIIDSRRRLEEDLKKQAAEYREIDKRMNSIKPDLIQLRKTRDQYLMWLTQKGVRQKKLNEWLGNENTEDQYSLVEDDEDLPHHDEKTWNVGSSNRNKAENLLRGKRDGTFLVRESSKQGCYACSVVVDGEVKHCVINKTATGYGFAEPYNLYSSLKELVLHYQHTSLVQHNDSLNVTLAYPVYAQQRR
Sequence of PI3Kα (P42336 whole entry, species assumed): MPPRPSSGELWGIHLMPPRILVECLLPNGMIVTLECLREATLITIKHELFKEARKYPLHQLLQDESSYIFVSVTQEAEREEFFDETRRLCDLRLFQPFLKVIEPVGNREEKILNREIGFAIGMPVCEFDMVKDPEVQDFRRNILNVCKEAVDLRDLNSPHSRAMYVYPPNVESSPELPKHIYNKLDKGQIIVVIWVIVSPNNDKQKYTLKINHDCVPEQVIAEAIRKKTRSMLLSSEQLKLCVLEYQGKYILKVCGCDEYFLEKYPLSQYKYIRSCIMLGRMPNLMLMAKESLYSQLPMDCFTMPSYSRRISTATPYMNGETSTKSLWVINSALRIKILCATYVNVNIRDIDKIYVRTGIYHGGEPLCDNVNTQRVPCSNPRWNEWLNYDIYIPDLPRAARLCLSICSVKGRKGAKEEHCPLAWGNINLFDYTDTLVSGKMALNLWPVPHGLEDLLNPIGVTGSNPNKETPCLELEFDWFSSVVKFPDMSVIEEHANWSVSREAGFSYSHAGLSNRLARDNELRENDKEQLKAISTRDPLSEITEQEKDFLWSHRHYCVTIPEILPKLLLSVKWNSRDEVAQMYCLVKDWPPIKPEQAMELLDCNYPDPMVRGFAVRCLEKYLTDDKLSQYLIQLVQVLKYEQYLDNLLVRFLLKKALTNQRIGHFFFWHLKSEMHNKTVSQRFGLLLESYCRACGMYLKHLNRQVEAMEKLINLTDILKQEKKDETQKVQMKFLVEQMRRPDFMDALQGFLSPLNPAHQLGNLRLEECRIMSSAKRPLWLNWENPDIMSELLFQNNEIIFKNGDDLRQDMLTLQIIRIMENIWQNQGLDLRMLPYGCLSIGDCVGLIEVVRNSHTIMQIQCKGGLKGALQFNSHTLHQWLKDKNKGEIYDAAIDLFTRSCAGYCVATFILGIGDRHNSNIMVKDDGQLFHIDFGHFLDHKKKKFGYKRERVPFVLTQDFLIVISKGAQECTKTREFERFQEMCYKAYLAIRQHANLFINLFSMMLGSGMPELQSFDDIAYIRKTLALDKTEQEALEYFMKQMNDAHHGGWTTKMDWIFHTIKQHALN
Sequence of PI3Kα (P27986 whole entry partner, species assumed): as the sequence (P27986 whole entry partner, species assumed) above

| Compound | AUC(0-inf) (in vivo [1]) | AUC(0-t) (in vivo [1]) | AUCextrap (in vivo [1]) | Cmax (in vivo [1]) | MRT last (in vivo [1]) | Tmax (in vivo [1]) | half-life (in vivo [1]) | IC50 (polio virus Sabin 1) | IC50 (Enterovirus 30) | IC50 (coxsackie B1 virus) | IC50 (coxsackie B3 virus) | IC50 (Enterovirus 68) | IC50 (coxsackie B2 virus) | IC50 (PI3Kβ) | IC50 (PI3Kα) | IC50 (coxsackie B5 virus) | IC50 (Enterovirus 6) | IC50 (PI4KIIIβ) | IC50 (PI4KIIIα) | IC50 (coxsackie B4 virus) | other results |
| --- | --- | --- | --- | --- | --- | --- | --- | --- | --- | --- | --- | --- | --- | --- | --- | --- | --- | --- | --- | --- | --- |
| Cc1ccc(CNc2cc(C)nn3c(-c4ccc5c(c4)c(C)nn5C)c(C)nc23)cn1 [Example 2, 3-(1,3-dimethyl-1H-indazol-5-yl)-2,6-dimethyl-N-((6-methylpyridin-3-yl)methyl)imidazo[1,2-b]pyridazin-8-amine] | 64100 ± 7000 ng·h/mL | 58600 ± 9900 ng·h/mL | 8.8 ± 7.1% | 4800 ± 800 ng/mL | 6.9 ± 0.8 h | 1.7 ± 0.6 h | 396 ± 144 min | < 100 nM | < 100 nM | < 100 nM | < 10 nM | < 1000 nM | < 100 nM | 1700 nM | > 1000 nM | < 100 nM | < 100 nM | 1.5 nM | 200 nM | < 10 nM | IC50 (Enterovirus 71): < 100 nM |
| Cc1cc(NCc2ccc(S(C)(=O)=O)cc2)n2nc(C)c(-c3ccc4c(c3)c(C)nn4C)c2n1 [Example 12, 3-(1,3-dimethyl-1H-indazol-5-yl)-2,5-dimethyl-N-(4-(methyl-sulfonyl)benzyl)pyrazolo[1,5-a]pyrimidin-7-amine] | 73300 ± 46900 ng·h/mL | 30000 ± 8200 ng·h/mL | 49.4 ± 24.5% | 1900 ± 100 ng/mL | 10.3 ± 1.2 h | 5.3 ± 2.3 h | 1660 ± 1010 min | < 10 nM | < 1 nM | < 10 nM | < 1 nM | < 100 nM | < 10 nM | > 1000 nM | > 1000 nM | < 1 nM | < 10 nM | 0.8 nM | 800 nM | < 1 nM | fraction unbound at 4 h, 5 μM (in vitro; human): 0.01; fraction unbound at 4 h, 5 μM (in vitro; rat): 0.015; Remaining after 1 h, RLM [2]: 71%; NOAEL at 7 days (in vivo [3]): 50 mg/kg/day; Remaining after 1 h, HLM ([4]; human liver microsomes, 5 μM test item, 0.125 mg/mL microsomal protein): 84%; half-life at 5 μM ([4]; human, microsomes): > 120 min; IC50 (Enterovirus 71): < 10 nM |

— patent US11001587B2, “Substituted indazoles as phosphatidylinositol kinase inhibitors” (CUROVIR AB, priority 2017, dated 2021)
